Measurements as given in patent publication US6737383B1, “Herbicidal oxadiazolidines” (priority 1999, dated 2004).

Legend:
[1] = system: bedstraw; assay: Test B pre/postemergence bedstraw; type: in vivo, Galium aparine; conditions: Preemergence
Method in brief: (§1)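 Test chemicals in a non-phytotoxic solvent mixture with surfactant were sprayed preemergence onto planted seeds and postemergence onto plants 2 to 18 cm tall (1- to 4-leaf stage). After twelve to sixteen days in a greenhouse, injury was visually rated against untreated controls from 0 (no effect) to 10 (complete control).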

[2] = system: blackgrass; assay: Test B pre/postemergence blackgrass; type: in vivo, Alopecurus myosuroides
Method in brief: as §1

[3] = system: surinam grass; assay: Test B pre/postemergence surinam grass; type: in vivo, Brachiaria decumbens
Method in brief: as §1

[4] = system: cocklebur; assay: Test B pre/postemergence cocklebur; type: in vivo, Xanthium strumarium
Method in brief: as §1

[5] = system: corn; assay: Test B pre/postemergence corn; type: in vivo, Zea mays
Method in brief: as §1

[6] = system: crabgrass; assay: Test B pre/postemergence crabgrass; type: in vivo, Digitaria sanguinalis
Method in brief: as §1

[7] = system: giant foxtail; assay: Test B pre/postemergence giant foxtail; type: in vivo, Setaria faberii
Method in brief: as §1

[8] = system: morningglory; assay: Test B pre/postemergence morningglory; type: in vivo, Ipomoea hederacea
Method in brief: as §1

[9] = system: pigweed; assay: Test B pre/postemergence pigweed; type: in vivo, Amaranthus retroflexus
Method in brief: as §1

[10] = system: rape; assay: Test B pre/postemergence rape; type: in vivo, Brassica napus
Method in brief: as §1

[11] = system: soybean; assay: Test B pre/postemergence soybean; type: in vivo, Glycine max
Method in brief: as §1

[12] = system: sugar beet; assay: Test B pre/postemergence sugar beet; type: in vivo, Beta vulgaris
Method in brief: as §1

[13] = system: velvetleaf; assay: Test B pre/postemergence velvetleaf; type: in vivo, Abutilon theophrasti
Method in brief: as §1

[14] = system: wheat; assay: Test B pre/postemergence wheat; type: in vivo, Triticum aestivum
Method in brief: as §1

[15] = system: wild oat; assay: Test B pre/postemergence wild oat; type: in vivo, Avena fatua
Method in brief: as §1

[16] = system: purple nutsedge; assay: Test B pre/postemergence purple nutsedge; type: in vivo, Cyperus rotundus
Method in brief: as §1

[17] = Postemergence, Rate 62 g/ha, scale of 0 to 10, 0 is no effect, 10 is complete control
[18] = Postemergence, Rate 125 g/ha, scale 0 to 10, 0 is no effect, 10 is complete control
[19] = Postemergence, Rate 500 g/ha, scale 0 to 10, 0 is no effect, 10 is complete control
[20] = Preemergence, Rate 62 g/ha, scale of 0 to 10 where 0 is no effect and 10 is complete control
[21] = Preemergence, Rate 125 g/ha, scale 0 to 10, 0 is no effect, 10 is complete control
[22] = Preemergence, Rate 500 g/ha, scale of 0 to 10 where 0 is no effect and 10 is complete control
[23] = Rate 250 g/ha, Postemergence, scale of 0 to 10 where 0 is no effect and 10 is complete control

CC(C)N(C(=O)n1oc(=O)n(CCC(F)(F)F)c1=O)c1ccc(F)cc1F [Compound 525]
8: Plant response rating, Blackgrass [2, 19] | Plant response rating, Blackgrass [2, 20] | Blackgrass plant response rating [2, 22] | Plant response rating, Blackgrass [2, 23] | Plant response rating, B. signalgrass [3, 19] | Corn plant response rating [5, 22] | Giant foxtail plant response rating [7, 18] | Plant response rating, Redroot pigweed [9, 19] | Plant response rating, Rape [10, 19] | Plant response rating, Sugarbeets [12, 19] | Sugarbeets plant response rating [12, 21] | Wild oats plant response rating [15, 22]
10: Crabgrass plant response rating (0 to 10 scale) ([6]; Preemergence, Rate 250 g/ha) | Crabgrass plant response rating [6, 22] | Giant foxtail plant response rating [7, 21] | Giant foxtail plant response rating (0 to 10 scale) ([7]; Preemergence, Rate 250 g/ha) | Giant foxtail plant response rating [7, 22]
6: Blackgrass plant response rating [2, 18] | Crabgrass plant response rating [6, 17] | Morningglory plant response rating [8, 22] | Plant response rating, Sugarbeets [12, 23] | Plant response rating, Wild oats [15, 19]
2: B. signalgrass plant response rating [3, 18] | Plant response rating, B. signalgrass [3, 23] | Cocklebur plant response rating [4, 17] | Cocklebur plant response rating [4, 18] | Plant response rating, Cocklebur [4, 19] | Plant response rating, Cocklebur [4, 23] | Plant response rating, Corn [5, 19] | Plant response rating, Corn [5, 23] | Morningglory plant response rating [8, 17] | Morningglory plant response rating [8, 18] | Plant response rating, Morningglory [8, 23] | Redroot pigweed plant response rating [9, 17] | Redroot pigweed plant response rating [9, 18] | Velvetleaf plant response rating [13, 17] | Plant response rating, Velvetleaf [13, 20] | Wheat plant response rating [14, 18] | Wild oats plant response rating [15, 18]
7: Blackgrass plant response rating [2, 21]
5: Giant foxtail plant response rating [7, 17] | Soybean plant response rating [11, 18] | Plant response rating, Soybean [11, 23] | Plant response rating, Sugarbeets [12, 20] | Plant response rating, Wheat [14, 19] | Plant response rating, Wheat [14, 23] | Plant response rating, Wild oats [15, 20] | Plant response rating, Nutsedge [16, 19] | Plant response rating, Nutsedge [16, 23]
0: Plant response rating, Bedstraw ([1]; Rate 62 g/ha, scale of 0 to 10 where 0 is no effect and 10 is complete control) | Bedstraw plant response rating ([1]; Rate 125 g/ha, scale 0 to 10, 0 is no effect, 10 is complete control) | Bedstraw plant response rating (0 to 10 scale) ([1]; Rate 250 g/ha) | Bedstraw plant response rating ([1]; Rate 500 g/ha, scale of 0 to 10 where 0 is no effect and 10 is complete control) | B. signalgrass plant response rating [3, 17] | Plant response rating, Cocklebur [4, 20] | Cocklebur plant response rating [4, 21] | Cocklebur plant response rating (0 to 10 scale) ([4]; Preemergence, Rate 250 g/ha) | Corn plant response rating [5, 17] | Corn plant response rating [5, 18] | Plant response rating, Corn [5, 20] | Corn plant response rating [5, 21] | Plant response rating, Morningglory [8, 20] | Morningglory plant response rating [8, 21] | Morningglory plant response rating (0 to 10 scale) ([8]; Preemergence, Rate 250 g/ha) | Plant response rating, Redroot pigweed [9, 20] | Redroot pigweed plant response rating [9, 21] | Rape plant response rating [10, 17] | Rape plant response rating [10, 18] | Plant response rating, Rape [10, 20] | Rape plant response rating [10, 21] | Plant response rating, Soybean [11, 20] | Soybean plant response rating [11, 21] | Soybean plant response rating (0 to 10 scale) ([11]; Preemergence, Rate 250 g/ha) | Soybean plant response rating [11, 22] | Sugarbeets plant response rating [12, 17] | Sugarbeets plant response rating [12, 18] | Wheat plant response rating [14, 17] | Wild oats plant response rating [15, 17] | Nutsedge plant response rating [16, 17] | Nutsedge plant response rating [16, 18] | Plant response rating, Nutsedge [16, 20] | Nutsedge plant response rating [16, 21] | Nutsedge plant response rating (0 to 10 scale) ([16]; Preemergence, Rate 250 g/ha) | Nutsedge plant response rating [16, 22]
4: Blackgrass plant response rating [2, 17] | Corn plant response rating (0 to 10 scale) ([5]; Preemergence, Rate 250 g/ha) | Rape plant response rating [10, 22] | Velvetleaf plant response rating [13, 22] | Plant response rating, Wild oats [15, 23]
3: Plant response rating, Morningglory [8, 19] | Redroot pigweed plant response rating [9, 22] | Plant response rating, Rape [10, 23] | Soybean plant response rating [11, 17] | Velvetleaf plant response rating [13, 18] | Plant response rating, Velvetleaf [13, 19] | Velvetleaf plant response rating [13, 21] | Velvetleaf plant response rating (0 to 10 scale) ([13]; Preemergence, Rate 250 g/ha) | Plant response rating, Velvetleaf [13, 23] | Plant response rating, Wheat [14, 20] | Wheat plant response rating [14, 22]
9: Plant response rating, B. signalgrass [3, 20] | B. signalgrass plant response rating [3, 22] | Plant response rating, Crabgrass [6, 19] | Plant response rating, Crabgrass [6, 20] | Crabgrass plant response rating [6, 21] | Plant response rating, Crabgrass [6, 23] | Plant response rating, Giant foxtail [7, 19] | Plant response rating, Giant foxtail [7, 20] | Plant response rating, Giant foxtail [7, 23] | Plant response rating, Redroot pigweed [9, 23] | Sugarbeets plant response rating [12, 22]
